Results: US20210007356A1, “IMIDE DERIVATIVE AND FUNGICIDE CONTAINING SAID DERIVATIVE AS ACTIVE INGREDIENT” (HOKKO CHEMICAL INDUSTRY CO., LTD., priority 2018, published 2021)
Where two headings read alike, the source gives them in different places.

Key:
[1] = test system: rice sheath blight fungus (Thanatephorus cucumeris); assay: Test Example 8: control effect against rice sheath blight by box treatment (granule); conditions: 5 g of granule on nursery box, paddy rice; inoculated after 3 weeks; 7 days after inoculation
[2] = test system: rice sheath blight fungus (Thanatephorus cucumeris); assay: Test Example 6: control effect against rice sheath blight by box treatment (flowable formulation); conditions: flowable 5,000 ppm, 50 mL irrigation of nursery box, paddy rice; inoculated after 3 weeks; 7 days after inoculation
[3] = test system: rice blast fungus (Pyricularia grisea); assay type: in vivo; conditions: flowable 1,000 ppm, 1 mL dripped in paddy water, inoculated after 1 week, 7 days after inoculation
[4] = test system: barley powdery mildew fungus (Erysiphe graminis); assay: Test Example 2: control effect against barley powdery mildew by foliage application; assay type: in vivo; conditions: wettable powder diluted to 100 ppm, 10 mL per pot foliage spray on barley; inoculated day after; 7 days after inoculation
[5] = test system: rice blast fungus (Pyricularia grisea); assay type: in vivo; conditions: 5 g of granule on nursery box, paddy rice; inoculated after 3 weeks; 7 days after inoculation
[6] = test system: rice sheath blight fungus (Thanatephorus cucumeris); assay: Test Example 10: control effect against rice sheath blight by water surface application (flowable formulation); conditions: flowable 1,000 ppm, 1 mL dripped in paddy water, inoculated after 1 week, 7 days after inoculation
Experimental: Control value (%)=[1−(lesion height in sprayed plot/lesion height in unsprayed plot)]×100 (d)
By dripping treatment in paddy water, 1 mL of a diluted solution (1,000 ppm) of a flowable prepared according to Formulation Example-3 was applied to a 5-leaf-stage paddy rice (variety: Asahi) seedling (5 seedlings/stub, one stub/pot) grown in a pot ( 1/10000 are in size) filled with paddy soil (flooded) within a greenhouse. After growing for 1 week within a greenhouse, a culture of rice sheath blight fungus (Thanatephorus cucumeris) grown in advance on a rice straw medium was inoculated into the root of the formulation-treated paddy rice, and disease development was promoted in an artificial weather chamber at 26° C. (relative humidity=100%). Seven days after the inoculation, the rice sheath blight lesion height (height from the root) was examined, and the control value (%) was calculated according to formula (d). […] This test was performed with three replications, each consisting of one plot and one pot, per one formulation plot, and its average evaluation value of control effect was determined.

[7] = test system: rice blast fungus (Pyricularia grisea); assay type: in vivo; conditions: flowable 5,000 ppm, 50 mL irrigation of nursery box, paddy rice; inoculated after 3 weeks; 7 days after inoculation

Structure (SMILES): Cc1nc(C(F)F)c(C(=O)N(C(=O)c2snnc2C)c2ccccc2CCC(C)C)s1 [7-151]
- evaluation value of control effect (from control value, lesion height) [1]: 5
- evaluation value of control effect (from control value, lesion height) [2]: 5
- evaluation value of control effect (from control value, number of lesions) [3]: 5
- evaluation value of control effect (from control value, lesion area percentage) [4]: 4
- evaluation value of control effect (from control value, number of lesions) [5]: 5
- evaluation value of control effect (from control value, lesion height) [6]: 5
- evaluation value of control effect (from control value, number of lesions) [7]: 5

Structure (SMILES): CC(C)CCc1ccccc1N(C(=O)c1cn(C)nc1C(F)F)C(=O)c1snc(Cl)c1Cl [1-34]
- evaluation value of control effect (from control value, lesion height) [1]: 5
- evaluation value of control effect (from control value, lesion height) [2]: 5
- evaluation value of control effect (from control value, number of lesions) [3]: 5
- evaluation value of control effect (from control value, lesion area percentage) [4]: 4
- evaluation value of control effect (from control value, number of lesions) [5]: 5
- evaluation value of control effect (from control value, lesion height) [6]: 5
- evaluation value of control effect (from control value, number of lesions) [7]: 5

Structure (SMILES): Cc1nc(C(F)F)c(C(=O)N(C(=O)c2snnc2C(F)F)c2ccccc2C(C)CC(C)C)s1 (stereo not shown) [7-176]
- evaluation value of control effect (from control value, lesion height) [1]: 5
- evaluation value of control effect (from control value, lesion height) [2]: 5
- evaluation value of control effect (from control value, number of lesions) [3]: 5
- evaluation value of control effect (from control value, lesion area percentage) [4]: 5
- evaluation value of control effect (from control value, number of lesions) [5]: 5
- evaluation value of control effect (from control value, lesion height) [6]: 5
- evaluation value of control effect (from control value, number of lesions) [7]: 5

Structure (SMILES): CC(C)CC(C)c1ccccc1N(C(=O)c1cccnc1C(F)F)C(=O)c1cccc2nnsc12 (stereo not shown) [13-16]
- evaluation value of control effect (from control value, lesion height) [1]: 5
- evaluation value of control effect (from control value, lesion height) [2]: 5
- evaluation value of control effect (from control value, number of lesions) [3]: 5
- evaluation value of control effect (from control value, lesion area percentage) [4]: 4
- evaluation value of control effect (from control value, number of lesions) [5]: 5
- evaluation value of control effect (from control value, lesion height) [6]: 5
- evaluation value of control effect (from control value, number of lesions) [7]: 5

Structure (SMILES): Cc1nc(C(F)F)c(C(=O)N(C(=O)c2cc(Cl)no2)c2cccc3c2C(C)OC3(C)C)s1 (stereo not shown) [26-91]
- evaluation value of control effect (from control value, lesion height) [1]: 5
- evaluation value of control effect (from control value, lesion height) [2]: 5
- evaluation value of control effect (from control value, number of lesions) [3]: 5
- evaluation value of control effect (from control value, lesion area percentage) [4]: 4
- evaluation value of control effect (from control value, number of lesions) [5]: 5
- evaluation value of control effect (from control value, lesion height) [6]: 5
- evaluation value of control effect (from control value, number of lesions) [7]: 5

Structure (SMILES): Cc1nn(C)c(F)c1C(=O)N(C(=O)c1snnc1C(F)F)c1ccccc1C(C)CC(C)C (stereo not shown) [1-258]
- evaluation value of control effect (from control value, lesion height) [1]: 5
- evaluation value of control effect (from control value, lesion height) [2]: 5
- evaluation value of control effect (from control value, number of lesions) [3]: 5
- evaluation value of control effect (from control value, lesion area percentage) [4]: 4
- evaluation value of control effect (from control value, number of lesions) [5]: 5
- evaluation value of control effect (from control value, lesion height) [6]: 5
- evaluation value of control effect (from control value, number of lesions) [7]: 5

Structure (SMILES): CC(C)CC(C)c1ccccc1N(C(=O)c1cccnc1C(F)F)C(=O)c1onc(Cl)c1Cl (stereo not shown) [13-49]
- evaluation value of control effect (from control value, lesion height) [1]: 5
- evaluation value of control effect (from control value, lesion height) [2]: 5
- evaluation value of control effect (from control value, number of lesions) [3]: 5
- evaluation value of control effect (from control value, lesion area percentage) [4]: 5
- evaluation value of control effect (from control value, number of lesions) [5]: 5
- evaluation value of control effect (from control value, lesion height) [6]: 5
- evaluation value of control effect (from control value, number of lesions) [7]: 5

Structure (SMILES): CC1OC(C)(C)c2cccc(N(C(=O)c3cccnc3C(F)F)C(=O)c3snc(Cl)c3Cl)c21 (stereo not shown) [27-4]
- evaluation value of control effect (from control value, lesion height) [1]: 5
- evaluation value of control effect (from control value, lesion height) [2]: 5
- evaluation value of control effect (from control value, number of lesions) [3]: 5
- evaluation value of control effect (from control value, lesion area percentage) [4]: 4
- evaluation value of control effect (from control value, number of lesions) [5]: 5
- evaluation value of control effect (from control value, lesion height) [6]: 5
- evaluation value of control effect (from control value, number of lesions) [7]: 5

Structure (SMILES): CC1OC(C)(C)c2cccc(N(C(=O)c3cn(C)nc3C(F)F)C(=O)c3cccc4nnsc34)c21 (stereo not shown) [25-74]
- evaluation value of control effect (from control value, lesion height) [1]: 5
- evaluation value of control effect (from control value, lesion height) [2]: 5
- evaluation value of control effect (from control value, number of lesions) [3]: 5
- evaluation value of control effect (from control value, lesion area percentage) [4]: 4
- evaluation value of control effect (from control value, number of lesions) [5]: 5
- evaluation value of control effect (from control value, lesion height) [6]: 5
- evaluation value of control effect (from control value, number of lesions) [7]: 5

Structure (SMILES): CC(C)CC(C)c1sccc1N(C(=O)c1cccnc1C(F)F)C(=O)c1snc(Cl)c1Cl (stereo not shown) [18-2]
- evaluation value of control effect (from control value, lesion height) [1]: 5
- evaluation value of control effect (from control value, lesion height) [2]: 5
- evaluation value of control effect (from control value, number of lesions) [3]: 5
- evaluation value of control effect (from control value, lesion area percentage) [4]: 5
- evaluation value of control effect (from control value, number of lesions) [5]: 5
- evaluation value of control effect (from control value, lesion height) [6]: 5
- evaluation value of control effect (from control value, number of lesions) [7]: 5

Structure (SMILES): Cc1ncc(C(=O)N(C(=O)c2cc(Cl)no2)c2ccccc2C(C)CC(C)C)s1 (stereo not shown) [7-278]
- evaluation value of control effect (from control value, lesion height) [1]: 5
- evaluation value of control effect (from control value, lesion height) [2]: 5
- evaluation value of control effect (from control value, number of lesions) [3]: 5
- evaluation value of control effect (from control value, lesion area percentage) [4]: 4
- evaluation value of control effect (from control value, number of lesions) [5]: 5
- evaluation value of control effect (from control value, lesion height) [6]: 5
- evaluation value of control effect (from control value, number of lesions) [7]: 5

Structure (SMILES): CC1OC(C)(C)c2cccc(N(C(=O)c3cn(C)nc3C(F)F)C(=O)c3onc(Cl)c3Cl)c21 (stereo not shown) [25-114]
- evaluation value of control effect (from control value, lesion height) [1]: 5
- evaluation value of control effect (from control value, lesion height) [2]: 5
- evaluation value of control effect (from control value, number of lesions) [3]: 5
- evaluation value of control effect (from control value, lesion area percentage) [4]: 4
- evaluation value of control effect (from control value, number of lesions) [5]: 5
- evaluation value of control effect (from control value, lesion height) [6]: 5
- evaluation value of control effect (from control value, number of lesions) [7]: 5

Structure (SMILES): CC(C)CC(C)c1ccccc1N(C(=O)c1cn(C)nc1C(F)F)C(=O)c1scnc1C(F)F (stereo not shown) [1-341]
- evaluation value of control effect (from control value, lesion height) [1]: 5
- evaluation value of control effect (from control value, lesion height) [2]: 5
- evaluation value of control effect (from control value, number of lesions) [3]: 5
- evaluation value of control effect (from control value, lesion area percentage) [4]: 4
- evaluation value of control effect (from control value, number of lesions) [5]: 5
- evaluation value of control effect (from control value, lesion height) [6]: 5
- evaluation value of control effect (from control value, number of lesions) [7]: 5

Structure (SMILES): Cc1nc(C(F)F)c(C(=O)N(C(=O)c2cccnc2C(F)F)c2ccccc2C(C)CC(C)C)s1 (stereo not shown) [7-270]
- evaluation value of control effect (from control value, lesion height) [1]: 5
- evaluation value of control effect (from control value, lesion height) [2]: 5
- evaluation value of control effect (from control value, number of lesions) [3]: 5
- evaluation value of control effect (from control value, lesion area percentage) [4]: 4
- evaluation value of control effect (from control value, number of lesions) [5]: 5
- evaluation value of control effect (from control value, lesion height) [6]: 5
- evaluation value of control effect (from control value, number of lesions) [7]: 5

Structure (SMILES): Cc1nc(C(F)F)c(C(=O)N(C(=O)c2snc(Cl)c2Cl)c2ccccc2C(C)CC(C)C)s1 (stereo not shown) [7-38, N-(3,4-Dichloroisothiazole-5-carbonyl)-4-(difluoromethyl)-N-{2-(1,3-dimethylbutyl)phenyl}-2-methyl-thiazole-5-carboxamide]
- evaluation value of control effect (from control value, lesion height) [1]: 5
- evaluation value of control effect (from control value, lesion height) [2]: 5
- evaluation value of control effect (from control value, number of lesions) [3]: 5
- evaluation value of control effect (from control value, lesion area percentage) [4]: 5
- evaluation value of control effect (from control value, number of lesions) [5]: 5
- evaluation value of control effect (from control value, lesion height) [6]: 5
- evaluation value of control effect (from control value, number of lesions) [7]: 5

Structure (SMILES): Cc1cc(C(=O)N(C(=O)c2cn(C)nc2C(F)F)c2ccccc2C(C)CC(C)C)sn1 (stereo not shown) [1-136]
- evaluation value of control effect (from control value, lesion height) [1]: 5
- evaluation value of control effect (from control value, lesion height) [2]: 5
- evaluation value of control effect (from control value, number of lesions) [3]: 5
- evaluation value of control effect (from control value, lesion area percentage) [4]: 4
- evaluation value of control effect (from control value, number of lesions) [5]: 5
- evaluation value of control effect (from control value, lesion height) [6]: 5
- evaluation value of control effect (from control value, number of lesions) [7]: 5

Structure (SMILES): Cc1nc(C(F)F)c(C(=O)N(C(=O)c2sc(C)nc2C(F)F)c2ccccc2CCC(C)C)s1 [7-237]
- evaluation value of control effect (from control value, lesion height) [1]: 5
- evaluation value of control effect (from control value, lesion height) [2]: 5
- evaluation value of control effect (from control value, number of lesions) [3]: 5
- evaluation value of control effect (from control value, lesion area percentage) [4]: 4
- evaluation value of control effect (from control value, number of lesions) [5]: 5
- evaluation value of control effect (from control value, lesion height) [6]: 5
- evaluation value of control effect (from control value, number of lesions) [7]: 5

Structure (SMILES): Cc1nnsc1C(=O)N(C(=O)c1cccnc1C(F)F)c1ccsc1C(C)CC(C)C (stereo not shown) [18-8]
- evaluation value of control effect (from control value, lesion height) [1]: 5
- evaluation value of control effect (from control value, lesion height) [2]: 5
- evaluation value of control effect (from control value, number of lesions) [3]: 5
- evaluation value of control effect (from control value, lesion area percentage) [4]: 5
- evaluation value of control effect (from control value, number of lesions) [5]: 5
- evaluation value of control effect (from control value, lesion height) [6]: 5
- evaluation value of control effect (from control value, number of lesions) [7]: 5

Structure (SMILES): CC(C)CC(C)c1ccccc1N(C(=O)c1cccnc1Cl)C(=O)c1snc(Cl)c1Cl (stereo not shown) [13-53]
- evaluation value of control effect (from control value, lesion height) [1]: 5
- evaluation value of control effect (from control value, lesion height) [2]: 5
- evaluation value of control effect (from control value, number of lesions) [3]: 5
- evaluation value of control effect (from control value, lesion area percentage) [4]: 4
- evaluation value of control effect (from control value, number of lesions) [5]: 5
- evaluation value of control effect (from control value, lesion height) [6]: 5
- evaluation value of control effect (from control value, number of lesions) [7]: 5
